Laboratory results: article PMC1887769 (The Journal of General Physiology, 1998)

Target: T1, αβγXENaC (Xenopus ENaC) (Xenopus laevis, UniProt P51167+P51169+P51171)
T1 sequence (P51167 1-632): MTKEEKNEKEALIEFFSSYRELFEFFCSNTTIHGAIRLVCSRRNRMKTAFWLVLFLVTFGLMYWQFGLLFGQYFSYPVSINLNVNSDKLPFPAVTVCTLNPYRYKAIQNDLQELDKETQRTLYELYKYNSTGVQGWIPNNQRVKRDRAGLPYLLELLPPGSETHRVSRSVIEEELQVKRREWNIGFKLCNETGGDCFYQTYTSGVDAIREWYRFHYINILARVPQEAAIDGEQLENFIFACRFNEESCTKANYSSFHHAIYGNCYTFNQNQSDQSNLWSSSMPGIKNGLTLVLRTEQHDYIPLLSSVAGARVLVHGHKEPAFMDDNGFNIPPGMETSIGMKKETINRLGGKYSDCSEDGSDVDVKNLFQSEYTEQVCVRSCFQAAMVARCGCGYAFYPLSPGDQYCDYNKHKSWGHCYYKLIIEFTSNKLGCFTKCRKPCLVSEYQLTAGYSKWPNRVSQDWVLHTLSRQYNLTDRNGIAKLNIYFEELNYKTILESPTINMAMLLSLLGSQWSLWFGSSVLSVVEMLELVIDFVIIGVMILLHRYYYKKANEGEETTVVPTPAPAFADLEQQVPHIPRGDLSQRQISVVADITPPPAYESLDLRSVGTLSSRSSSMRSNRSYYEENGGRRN
T1 sequence (P51169 1-647): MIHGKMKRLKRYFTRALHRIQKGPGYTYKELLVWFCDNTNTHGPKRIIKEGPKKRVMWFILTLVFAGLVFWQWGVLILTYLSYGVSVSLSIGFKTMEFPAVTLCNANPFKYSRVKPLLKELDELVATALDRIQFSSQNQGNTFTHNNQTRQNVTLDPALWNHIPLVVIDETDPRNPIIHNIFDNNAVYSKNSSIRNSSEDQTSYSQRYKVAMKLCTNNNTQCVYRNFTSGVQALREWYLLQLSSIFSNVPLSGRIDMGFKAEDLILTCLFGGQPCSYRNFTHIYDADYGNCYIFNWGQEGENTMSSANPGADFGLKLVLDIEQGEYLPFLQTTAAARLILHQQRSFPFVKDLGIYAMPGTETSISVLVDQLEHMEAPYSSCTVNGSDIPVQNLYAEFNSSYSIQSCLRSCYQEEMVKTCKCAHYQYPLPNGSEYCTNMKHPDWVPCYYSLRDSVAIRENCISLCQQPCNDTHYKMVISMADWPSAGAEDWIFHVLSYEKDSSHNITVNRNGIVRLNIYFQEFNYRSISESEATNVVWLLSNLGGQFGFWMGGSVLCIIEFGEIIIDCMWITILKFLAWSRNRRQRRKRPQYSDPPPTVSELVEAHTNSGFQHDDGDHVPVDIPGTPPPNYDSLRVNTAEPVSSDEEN
T1 sequence (P51171 1-660): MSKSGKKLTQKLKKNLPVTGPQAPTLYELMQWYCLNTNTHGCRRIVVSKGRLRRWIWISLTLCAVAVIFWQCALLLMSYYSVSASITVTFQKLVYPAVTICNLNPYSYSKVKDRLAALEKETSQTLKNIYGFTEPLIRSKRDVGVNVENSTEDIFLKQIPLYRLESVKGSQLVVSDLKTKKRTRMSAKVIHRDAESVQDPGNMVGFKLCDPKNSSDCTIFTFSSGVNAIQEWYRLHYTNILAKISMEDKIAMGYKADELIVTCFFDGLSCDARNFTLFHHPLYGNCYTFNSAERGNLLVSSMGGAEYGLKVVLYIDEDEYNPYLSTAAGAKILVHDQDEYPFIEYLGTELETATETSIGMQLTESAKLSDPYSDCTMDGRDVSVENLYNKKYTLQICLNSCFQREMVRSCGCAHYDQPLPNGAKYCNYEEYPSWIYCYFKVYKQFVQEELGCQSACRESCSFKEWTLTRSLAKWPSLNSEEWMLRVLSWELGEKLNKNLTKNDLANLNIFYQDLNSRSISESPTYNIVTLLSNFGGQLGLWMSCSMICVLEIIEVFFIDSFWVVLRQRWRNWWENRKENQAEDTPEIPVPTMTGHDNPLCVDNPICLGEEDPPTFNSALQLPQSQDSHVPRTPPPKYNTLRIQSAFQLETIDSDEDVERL
Assay: two-electrode voltage clamp of Na+ current in oocytes
Assay type: cell-based

Ki: 0.55 ± 0.03 µM
Structure (SMILES): N=C(N)NC(=O)c1nc(Cl)c(N)nc1N [amiloride]
